Legend:
[1] = target: human TYK2 (JH2domain-pseudokinase) (Homo sapiens (Human), UniProt P29597); assay: TYK2 JH2 Domain Binding Assay (KINOMEscan); details: 11-point 3-fold dilution, top concentration 30,000 nM, duplicate
How it was run: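 Competition binding used an NFkB-DNA-tagged fusion of TYK2 JH2 (G556–D888) expressed in HEK293 extracts against an immobilised ligand, 1 h at room temperature. Bead-bound kinase was quantified by qPCR. Kd came from an 11-point 3-fold series with a 30,000 nM top concentration and 0.9% DMSO, Hill slope −1, run in duplicate.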

[2] = target: TYK2 kinase domain (JH1) (Homo sapiens (Human), UniProt P29597); assay: TYK2 Radioactive Kinase Assay; type: biochemical; details: compound at 10 μM; ATP at 10 μM; 120 min at room temp
[3] = target: JAK2 kinase domain (JH1) (Homo sapiens (Human), UniProt O60674); assay: JAK2 Radioactive Kinase Assay; type: biochemical; details: compound at 10 μM; ATP at 10 μM; substrate poly[Glu:Tyr](4:1)
[4] = tested on: IL-12 induced STAT4 phophorylation mediated by TYK2/JAK2 (heterodimeric complex); assay: IL-12 Induced pSTAT4 in Human PBMC; type: cell-based; details: 1.7 ng/mL IL-12 for 30 minutes, 1 hr compound preincubation
Protocol: (§1) Human PBMC were isolated from buffy coat and were stored frozen for assays as needed. Cells for assay were thawed and resuspended in complete media containing serum, then cells were diluted to 1.67 E6 cells/mL so that 120 μl per well is 200,000 cells. 15 μl of compound or DMSO was added to the well at the desired concentrations and incubated at 1 hr at 37 C. 15 μl of stimulus (final concentration of 1.7 ng/mL IL-12) was added for 30 minutes prior to pSTAT4 and total STAT4 analysis using cell lysates prepared and analyzed by MSD reagents as per manufacturer protocol. The final DMSO concentration of compound in the assay was 0.1%.
The IL-12 Induced pSTAT4 assay evaluates the inhibition of IL-12 induced STAT4 phophorylation mediated by TYK2/JAK2 (heterodimeric complex).

[5] = tested on: GM-CSF induced STAT5 phopsphorylation mediated by the JAK2/JAK2 homodimeric complex; assay: GM-CSF Induced pSTAT5 in Human PBMC; type: cell-based; details: 20 min, GM-CSF 5 ng/mL for 20 minutes, read-out: PBMC_GMCSF_pSTAT5 IC50
Protocol: as §1
Cells were prepared for analysis as in the above procedure and 15 μl of GM-CSF (final concentration 5 ng/mL) was added for 20 minutes prior to pSTAT5 and total STAT5 analysis using cell lysates prepared and analyzed by MSD reagents as per manufacturer protocol. The final DMSO concentration of compound in the assay was 0.1%.
The GM-CSF Induced pSTAT5 assay is a JAK2 cellular selectivity assay which evaluates inhibition of GM-CSF induced STAT5 phopsphorylation mediated by the JAK2/JAK2 homodimeric complex.

Sequence of human TYK2 (JH2domain-pseudokinase) (P29597 556-888): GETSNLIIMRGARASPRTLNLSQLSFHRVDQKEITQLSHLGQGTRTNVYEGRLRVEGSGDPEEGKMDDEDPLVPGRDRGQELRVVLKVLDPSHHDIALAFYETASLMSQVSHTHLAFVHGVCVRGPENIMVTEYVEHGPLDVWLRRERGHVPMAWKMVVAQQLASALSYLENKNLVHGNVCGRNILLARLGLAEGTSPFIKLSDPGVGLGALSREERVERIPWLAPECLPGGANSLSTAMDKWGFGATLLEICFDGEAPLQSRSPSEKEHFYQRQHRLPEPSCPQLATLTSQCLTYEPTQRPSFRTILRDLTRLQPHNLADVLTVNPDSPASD
Sequence of TYK2 kinase domain (JH1) (P29597 897-1176): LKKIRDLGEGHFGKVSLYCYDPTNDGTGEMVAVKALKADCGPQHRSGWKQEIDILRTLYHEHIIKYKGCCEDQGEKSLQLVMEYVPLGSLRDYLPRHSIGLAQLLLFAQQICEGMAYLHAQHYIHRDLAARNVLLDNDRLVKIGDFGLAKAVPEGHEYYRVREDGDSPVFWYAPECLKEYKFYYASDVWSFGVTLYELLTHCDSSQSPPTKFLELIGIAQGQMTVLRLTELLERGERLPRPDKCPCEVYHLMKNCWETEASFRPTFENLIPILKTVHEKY
Sequence of JAK2 kinase domain (JH1) (O60674 849-1124): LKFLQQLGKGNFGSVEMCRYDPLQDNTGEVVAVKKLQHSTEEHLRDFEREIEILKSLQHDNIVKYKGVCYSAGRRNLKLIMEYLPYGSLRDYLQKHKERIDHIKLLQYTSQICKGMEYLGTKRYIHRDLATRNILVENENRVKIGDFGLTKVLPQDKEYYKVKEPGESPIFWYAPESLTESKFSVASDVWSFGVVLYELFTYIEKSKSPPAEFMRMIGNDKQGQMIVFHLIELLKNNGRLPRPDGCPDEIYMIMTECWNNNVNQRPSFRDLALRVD

Structure (SMILES) | Kd [1] | inhibition at 10 µM [2] | inhibition at 10 µM [3] | IC50 [4] | IC50 [5]
CNC(=O)c1cnc(NC(=O)C2CC2)c2[nH]c(-c3ccccc3N3CCCS3(=O)=O)cc12 [Compound I-4, 7-(cyclopropanecarboxamido)-2-(2-(1,1-dioxidoisothiazolidin-2-yl)phenyl)-N-methyl-1H-pyrrolo[2,3-c]pyridine-4-carboxamide] | < 0.2 nM | < 50% | < 50% | < 100 nM | > 12500 nM
CNC(=O)c1cnc(NC(=O)C2CC2)c2[nH]c(-c3cccc(-c4ncco4)c3F)cc12 [Compound I-23, 7-(cyclopropanecarboxamido)-2-(2-fluoro-3-(oxazol-2-yl)phenyl)-N-methyl-1H-pyrrolo[2,3-c]pyridine-4-carboxamide] | < 0.2 nM | < 50% | < 50% | < 100 nM | > 50000 nM

Continued, values first:

Kd [1] | inhibition at 10 µM [2] | inhibition at 10 µM [3] | IC50 [4] | IC50 [5] | Structure (SMILES)
< 0.2 nM | < 50% | < 50% | < 100 nM | > 50000 nM | CNC(=O)c1cnc(NC(=O)C2CC2)c2[nH]c(-c3cccc(-c4ncn(C)n4)c3)cc12 [Compound I-2, 7-(cyclopropanecarboxamido)-N-methyl-2-(3-(1-methyl-1H-1,2,4-triazol-3-yl)phenyl)-1H-pyrrolo[2,3-c]pyridine-4-carboxamide]
< 0.2 nM | > 90% | > 90% | < 100 nM | > 300 nM | Cn1cnc(-c2cccc(-c3cc4c(C(N)=O)cnc(NC(=O)C5CC5)c4[nH]3)c2)n1 [Compound I-12, 7-(cyclopropanecarboxamido)-2-(3-(1-methyl-1H-1,2,4-triazol-3-yl)phenyl)-1H-pyrrolo[2,3-c]pyridine-4-carboxamide]
< 0.2 nM | < 50% | < 50% | < 100 nM | > 300 nM | CNC(=O)c1cnc(NC(=O)C2CC2)c2[nH]c(-c3cccc(-c4cnn(C)c4)c3F)cc12 [Compound I-19, 7-(cyclopropanecarboxamido)-2-(2-fluoro-3-(1-methyl-1H-pyrazol-4-yl)phenyl)-N-methyl-1H-pyrrolo[2,3-c]pyridine-4-carboxamide]

Source: patent US11053241B2, “TYK2 inhibitors and uses thereof” (Nimbus Lakshmi, Inc., priority 2018, dated 2021)
